Counter-ions that a name gives are not always drawn.
Target: T1, σ1-receptor (Cavia porcellus, UniProt Q60492)
T1 construct: guinea pig brains were homogenized; from tissue; host or cells: guinea pig brain membranes
Experiment: σ1-receptor binding assay, [3H](+)-pentazocine, guinea pig brain membranes
Details: [3H](+)-pentazocine 0.5 nM, non-specific binding 1 μM haloperidol, 37° C., 150 min
Experimental: Some representative compounds of the invention were tested for their activity as sigma (sigma-1) inhibitors. The following protocol was followed:
Brain membrane preparation and binding assays for the σ1-receptor were performed as described (DeHaven-Hudkins et al., 1992) with some modifications. In brief, guinea pig brains were homogenized in 10 vols. (w/v) of Tris-HCl 50 mM 0.32 M sucrose, pH 7.4, with a Kinematica Polytron PT 3000 at 15000 r.p.m. for 30 s. The homogenate was centrifuged at 1000 g for 10 min at 4° C. and the supernatants collected and centrifuged again at 48000 g for 15 min at 4° C. The pellet was resuspended in 10 volumes of Tris-HCl buffer (50 mM, pH 7.4), incubated at 37° C. for 30 min, and centrifuged at 48000 g for 20 min at 4° C. Following this, the pellet was resuspended in fresh Tris-HCl buffer (50 mM, pH 7.4) and stored on ice until use.
Each assay tube contained 10 μL of [^3H](+)-pentazocine (final concentration of 0.5 nM), 900 μL of the tissue suspension to a final assay volume of 1 mL and a final tissue concentration of approximately 30 mg tissue net weight/mL. Non-specific binding was defined by addition of a final concentration of 1 μM haloperidol. All tubes were incubated at 37° C. for 150 min before termination of the reaction by rapid filtration over Schleicher & Schuell GF 3362 glass fibre filters [previously soaked in a solution of 0.5% polyethylenimine for at least 1 h]. Filters were then washed with four times with 4 mL of cold Tris-HCl buffer (50 mM, pH 7.4). Following addition of scintillation cocktail, the samples were allowed to equilibrate overnight. The amount of bound radioactivity was determined by liquid scintillation spectrometry using a Wallac Winspectral 1414 liquid scintillation counter. Protein concentrations were determined by the method of Lowry et al, (1951).

T1 sequence (Q60492 whole entry): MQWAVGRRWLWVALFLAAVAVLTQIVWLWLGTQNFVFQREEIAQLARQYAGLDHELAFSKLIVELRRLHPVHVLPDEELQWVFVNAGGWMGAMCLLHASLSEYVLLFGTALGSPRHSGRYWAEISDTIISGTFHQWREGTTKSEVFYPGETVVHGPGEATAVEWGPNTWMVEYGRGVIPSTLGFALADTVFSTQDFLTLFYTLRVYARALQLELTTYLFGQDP

Cc1cc(COCCN2CCOCC2)nn1-c1ccc(Cl)c(Cl)c1 [Compound 1, 4-(2-{[1-(3,4-dichlorophenyl)-5-methyl-1H-pyrazol-3-yl]methoxy}ethyl)morpholine]
Ki: 13.8 nM

Cc1cc(COCCN2CCOCC2)nn1-c1ccc2ccccc2c1 [Compound 2, 4-(2-{[1-(2-naphthyl)-5-methyl-1H-pyrazol-3-yl]methoxy}ethyl)morpholine]
Ki: 209 nM

Cc1cc(CCCN2CCOCC2)nn1-c1ccc(Cl)c(Cl)c1 [Compound 3, 4-{3-[1-(3,4-dichlorophenyl)-5-methyl-1H-pyrazol-3-yl]propyl}morpholine]
Ki: 4.74 nM

Cc1cc(CCCN2CCOCC2)nn1-c1ccc2ccccc2c1 [Compound 4, 4-{3-[5-Methyl-1-(2-naphthyl)-1H-pyrazol-3-yl]propyl}morpholine]
Ki: 132 nM

Cc1cc(CCOCCN2CCOCC2)nn1-c1ccc(Cl)c(Cl)c1 [Compound 5, 4-(2-{2-[1-(3,4-dichlorophenyl)-5-methyl-1H-pyrazol-3-yl]ethoxy)ethyl}morpholine]
Ki: 113 nM

Cc1cc(COCCN2CCOCC2)nn1C1CCCCC1 [Compound 6, 4-(2-((1-cyclohexyl-5-methyl-1H-pyrazol-3-yl)methoxy)ethyl)-morpholine]
Ki: 23.6 nM

Cc1cc(CCCN2CCOCC2)nn1C1CCCCC1 [Compound 7, 4-(3-(1-cyclohexyl-5-methyl-1H-pyrazol-3-yl)propyl)morpholine]
Ki: 53.3 nM

Cc1cc(COCCN2CCCC2)nn1-c1ccc(Cl)c(Cl)c1 [Compound 8, 1-(3,4-dichlorophenyl)-5-methyl-3-((2-(pyrrolidin-1-yl)ethoxy)methyl)-1H-pyrazole]
Ki: 6.12 nM

Cc1cc(COCCN2CCCCC2)nn1-c1ccc(Cl)c(Cl)c1 [Compound 9, 1-(2-((1-(3,4-dichlorophenyl)-5-methyl-1H-pyrazol-3-yl)methoxy)ethyl)-piperidine]
Ki: 2.09 nM

CC(=O)N1CCN(CCOCc2cc(C)n(-c3ccc(Cl)c(Cl)c3)n2)CC1 [Compound 10, 1-(4-(2-((1-(3,4-dichlorophenyl)-5-methyl-1H-pyrazol-3-yl)methoxy)ethyl)-piperazin-1-yl)-ethanone]
Ki: 14.6 nM

Cc1cc(COCCN2C[C@@H](C)O[C@@H](C)C2)nn1-c1ccc(Cl)c(Cl)c1 [Compound 11, (2S,6R)-4-(2-((1-(3,4-dichlorophenyl)-5-methyl-1H-pyrazol-3-yl)methoxy)ethyl)-2,6-dimethylmorpholine]
Ki: 3.2 nM

Cc1cc(COCCN2CCOCC2)nn1-c1cnc2ccccc2c1 [Compound 12, 4-(2-((5-methyl-1-(quinolin-3-yl)-1H-pyrazol-3-yl)methoxy)ethyl)-morpholine]
Ki: 771 nM

Cc1cc(CCCCN2CCOCC2)nn1-c1ccc(Cl)c(Cl)c1 [Compound 13, 4-(4-(1-(3,4-dichlorophenyl)-5-methyl-1H-pyrazol-3-yl)butyl)morpholine]
Ki: 8.62 nM

Cc1cc(CCCN2CCOCC2)nn1-c1cnc2ccccc2c1 [Compound 14, 4-(3-(5-methyl-1-(quinolin-3-yl)-1H-pyrazol-3-yl)propyl)morpholine]
Ki: 281 nM

Clc1ccc(-n2ccc(COCCN3CCOCC3)n2)cc1Cl [Compound 15, 4-(2-((1-(3,4-dichlorophenyl)-1H-pyrazol-3-yl)methoxy)ethyl)-morpholine]
Ki: 2.13 nM

Cc1c(COCCN2CCOCC2)nn(-c2ccc(Cl)c(Cl)c2)c1C [Compound 16, 4-(2-((1-(3,4-dichlorophenyl)-4,5-dimethyl-1H-pyrazol-3-yl)methoxy)ethyl)-morpholine]
Ki: 22.9 nM

c1ccc2ncc(-n3ccc(CCCN4CCOCC4)n3)cc2c1 [Compound 17, 4-(3-(1-(quinolin-3-yl)-1H-pyrazol-3-yl)propyl)morpholine]
Ki: 154 nM

Clc1ccc(-n2ccc(CCCCN3CCOCC3)n2)cc1Cl [Compound 18, 4-(4-(1-(3,4-dichlorophenyl)-1H-pyrazol-3-yl)butyl)morpholine]
Ki: 6.28 nM

Cc1cc(COCCCN2CCOCC2)nn1C1CCCCC1 [Compound 20, 4-(3-((1-cyclohexyl-5-methyl-1H-pyrazol-3-yl)methoxy)propyl)-morpholine]
Ki: 6.8 nM

Cc1cc(COCCN2CCOCC2)nn1C1CCCC1 [Compound 21, 4-(2-((1-cyclopentyl-5-methyl-1H-pyrazol-3-yl)methoxy)ethyl)-morpholine]
Ki: 240 nM

CC(=O)N1CCN(CCOCc2cc(C)n(C3CCCCC3)n2)CC1 [Compound 22, 1-(4-(2-((1-cyclohexyl-5-methyl-1H-pyrazol-3-yl)methoxy)ethyl)-piperazin-1-yl)ethanone hydrochloride]
Ki: 101 nM

Cc1cc(COCCN2C[C@@H](C)N[C@@H](C)C2)nn1C1CCCCC1 [Compound 23, (3S,5R)-1-(2-((1-cyclohexyl-5-methyl-1H-pyrazol-3-yl)methoxy)ethyl)-3,5-dimethylpiperazine hydrochloride]
Ki: 488 nM

Cc1cc(CCOCCN2CCOCC2)nn1C1CCCCC1 [Compound 24, 4-(2-(2-(1-cyclohexyl-5-methyl-1H-pyrazol-3-yl)ethoxy)ethyl)-morpholine hydrochloride]
Ki: 266 nM

c1cn(C2CCCCC2)nc1COCCN1CCOCC1 [Compound 25, 4-(2-((1-cyclohexyl-1H-pyrazol-3-yl)methoxy)ethyl)-morpholine-hydrochloride]
Ki: 11.3 nM

Cc1c(COCCN2CCOCC2)nn(C2CCCCC2)c1C [Compound 26, 4-(2-((1-cyclohexyl-4,5-dimethyl-1H-pyrazol-3-yl)methoxy)ethyl)-morpholine hydrochloride]
Ki: 110 nM
